In patent US20040167188A1, “Protein-tyrosine phosphatase inhibitors and uses thereof” (priority 2003, published 2004):
Read-outs that look alike come from different tables or passages of the source.

Legend:
[1] = biological target: T1, CDC25c (fusion with glutathione-S-transferase) (Homo sapiens, UniProt P30307); assay: Inhibition constant determination, selectivity panel: cdc25c (pNPP hydrolysis); assay type: biochemical; conditions: competitive Ki; pNPP substrate; read-out: Phosphatase Inhibition Constants (Kic) Cdc25c
T1 sequence (P30307 1-473): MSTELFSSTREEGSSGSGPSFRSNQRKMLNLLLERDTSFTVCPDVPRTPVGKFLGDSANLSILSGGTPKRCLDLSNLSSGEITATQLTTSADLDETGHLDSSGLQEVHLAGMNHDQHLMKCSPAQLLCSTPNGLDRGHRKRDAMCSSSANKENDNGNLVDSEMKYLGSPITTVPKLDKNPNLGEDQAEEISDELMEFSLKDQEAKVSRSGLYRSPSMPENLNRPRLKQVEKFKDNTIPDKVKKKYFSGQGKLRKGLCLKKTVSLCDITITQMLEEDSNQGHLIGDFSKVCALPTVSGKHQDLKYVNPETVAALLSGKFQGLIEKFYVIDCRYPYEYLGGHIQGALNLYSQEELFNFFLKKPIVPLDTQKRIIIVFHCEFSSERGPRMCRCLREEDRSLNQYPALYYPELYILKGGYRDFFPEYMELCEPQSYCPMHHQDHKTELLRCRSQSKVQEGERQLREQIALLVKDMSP
Protocol: CDC25c was expressed as a fusion with glutathione-S— transferase (aka GST) in E. coli. Cells were lysed and debris removed as described for SHP-2, except lysis was in PBS (GibcoBRL Life Technologies, Grand Island, N.Y., Stock # 70011-044, diluted 10-fold). The soluble proteins were chromatographed on Glutathione-Sepharose FF (Amersham Pharmacia Biotech) and eluted with 10 mM reduced glutathione in 25 mM TRIS-HCl, pH 7.5, 150 mM NaCl. Fractions were assayed, pooled and stored as decribed for PTP1B.
(§1) The Kic and Kiu values are calculated as described for PTP1B. The assays were performed as described for PTP-1B except for the following changes. All the phosphatases except PP2B use the same 2× assay buffer as PTP1B. PP2B uses a 2× assay buffer which contains 100 mM TRIS-HCl pH 8.6, 40 mM MgCl2, 0.2 mM CaCl2, 6 mM DTT, 0.2 mg/mL BSA. The concentrations of pNPP present in 40 ul were the same for TCPTP, CD45, LAR and PTP1B. For PP2B they were 24 mM, 60 mM, 150 mM, and 375 mM; for cdc25C they were 16 mM, 40 mM, 100 mM, and 250 mM; for SHP-2 they were 6.4 mM, 16 mM, 40 mM, and 100 mM.

SHP-2 (full length) = biological target: T2, SHP-2 (full length) (Homo sapiens, UniProt Q06124); assay: Inhibition constant determination, selectivity panel: SHP-2 (pNPP hydrolysis); assay type: biochemical; conditions: competitive Ki; pNPP substrate; read-out: Phosphatase Inhibition Constants (Kic) SHP-2
T2 sequence (Q06124 1-593): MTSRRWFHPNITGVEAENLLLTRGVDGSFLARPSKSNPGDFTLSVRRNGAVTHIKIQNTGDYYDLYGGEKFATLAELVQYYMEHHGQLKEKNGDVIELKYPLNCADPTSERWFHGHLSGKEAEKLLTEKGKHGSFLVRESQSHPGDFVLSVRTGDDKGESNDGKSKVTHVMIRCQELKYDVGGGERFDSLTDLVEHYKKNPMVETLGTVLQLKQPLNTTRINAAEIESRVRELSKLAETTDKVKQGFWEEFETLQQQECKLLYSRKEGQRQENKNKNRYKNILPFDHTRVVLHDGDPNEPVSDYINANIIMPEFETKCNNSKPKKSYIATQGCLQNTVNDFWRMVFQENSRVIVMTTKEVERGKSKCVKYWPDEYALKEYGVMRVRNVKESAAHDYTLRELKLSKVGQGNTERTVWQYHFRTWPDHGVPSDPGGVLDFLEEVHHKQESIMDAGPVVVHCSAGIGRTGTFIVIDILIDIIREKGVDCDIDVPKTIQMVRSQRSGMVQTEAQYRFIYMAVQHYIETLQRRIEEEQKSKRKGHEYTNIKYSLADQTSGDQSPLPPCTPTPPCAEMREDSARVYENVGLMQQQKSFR
Protocol: Cells were lysed with a French press following by centrifugation to remove debris. Proteins were precipitated with 50% saturated ammonium sulfate, recovered by centrifugation, and chromatographed on Sephadex G-25 (Amersham Pharmacia Biotech) in 50 mM Tris-HCl pH 8, 10 mM NaCl, 1 mM DTT, 1 mM EDTA. The void volume was pooled and chromatographed on Q-Sepharose-FF in the same buffer, and SHP-2 was eluted with a 0-150 mM gradient of NaCl in the same buffer. Fractions were assayed, pooled, and stored as described for PTP1B.
as §1

LAR = biological target: T3, LAR (Homo sapiens, UniProt P10586); assay: Inhibition constant determination, selectivity panel: LAR (pNPP hydrolysis); assay type: biochemical; conditions: competitive Ki; pNPP substrate; read-out: Phosphatase Inhibition Constants (Kic) LAR
T3 construct: purchased New England Biolabs P0750L
T3 sequence (P10586 1301-1639 limits assumed): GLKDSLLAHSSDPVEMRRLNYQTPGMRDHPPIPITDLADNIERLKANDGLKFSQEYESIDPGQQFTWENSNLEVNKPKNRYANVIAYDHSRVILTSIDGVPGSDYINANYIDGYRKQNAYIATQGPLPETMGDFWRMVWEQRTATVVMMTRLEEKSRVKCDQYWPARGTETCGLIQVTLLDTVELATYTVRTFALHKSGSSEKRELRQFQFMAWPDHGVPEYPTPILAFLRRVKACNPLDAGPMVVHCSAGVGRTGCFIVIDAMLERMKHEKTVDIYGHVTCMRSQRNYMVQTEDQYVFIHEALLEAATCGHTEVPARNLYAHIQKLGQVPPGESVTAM

CD45 = biological target: T4, CD45 (Homo sapiens, UniProt P08575); assay: Inhibition constant determination, selectivity panel: CD45 (pNPP hydrolysis); assay type: biochemical; conditions: competitive Ki; pNPP substrate; read-out: Phosphatase Inhibition Constants (Kic) CD45
T4 construct: purchased Biomol Research Laboratories, Inc. SE-135
T4 sequence (P08575 609-1306 limits assumed): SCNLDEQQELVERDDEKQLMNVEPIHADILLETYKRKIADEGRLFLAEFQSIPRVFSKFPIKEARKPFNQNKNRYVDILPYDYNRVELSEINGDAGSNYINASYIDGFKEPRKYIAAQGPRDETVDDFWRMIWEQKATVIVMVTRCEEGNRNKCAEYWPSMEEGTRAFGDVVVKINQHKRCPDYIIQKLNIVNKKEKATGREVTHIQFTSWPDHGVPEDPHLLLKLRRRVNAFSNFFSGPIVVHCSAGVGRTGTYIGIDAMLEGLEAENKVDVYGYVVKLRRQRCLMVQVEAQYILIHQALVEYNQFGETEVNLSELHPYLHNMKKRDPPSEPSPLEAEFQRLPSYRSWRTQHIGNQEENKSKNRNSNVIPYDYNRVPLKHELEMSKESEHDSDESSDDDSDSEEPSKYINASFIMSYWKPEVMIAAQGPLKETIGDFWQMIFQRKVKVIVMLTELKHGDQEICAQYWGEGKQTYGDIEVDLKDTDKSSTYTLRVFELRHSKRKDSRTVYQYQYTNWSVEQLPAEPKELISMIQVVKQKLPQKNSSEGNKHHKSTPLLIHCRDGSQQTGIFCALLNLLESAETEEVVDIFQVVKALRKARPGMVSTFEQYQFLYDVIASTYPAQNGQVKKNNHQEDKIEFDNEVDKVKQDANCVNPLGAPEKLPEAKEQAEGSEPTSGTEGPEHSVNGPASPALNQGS
Protocol: CD45 was obtained commercially (catalog#SE-135 Biomol Research Laboratories, Inc. 5120 Butler Pike, Plymouth Meeting, Pa.).
as §1

TCPTP [2] = biological target: T5, TCPTP (Homo sapiens, UniProt P17706); assay: biochemical
T5 sequence (P17706 1-283): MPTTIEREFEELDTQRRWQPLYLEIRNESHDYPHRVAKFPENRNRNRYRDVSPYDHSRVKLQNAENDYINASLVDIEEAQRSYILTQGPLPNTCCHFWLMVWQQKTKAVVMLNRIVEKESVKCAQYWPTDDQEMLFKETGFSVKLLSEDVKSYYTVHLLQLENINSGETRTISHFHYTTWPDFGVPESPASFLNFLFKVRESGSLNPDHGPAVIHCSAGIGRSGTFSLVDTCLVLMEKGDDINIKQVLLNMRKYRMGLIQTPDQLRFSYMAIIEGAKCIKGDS

Bovine PP2B = biological target: T6, Bovine PP2B (Bos taurus, UniProt P48452); assay: Inhibition constant determination, selectivity panel: PP2B (pNPP hydrolysis); assay type: biochemical; conditions: competitive Ki; pNPP substrate; read-out: Phosphatase Inhibition Constants (Kic) PP2B
T6 construct: purchased Sigma C1907
Protocol: Bovine PP2B was obtained commercially (C1907 Sigma, St. Louis, Mo.).
as §1

[3] = biological target: T7, Human protein tyrosine phosphatase 1B (PTP1B, amino acid residues 1-321) (Homo sapiens, UniProt P18031); conditions: read-out: Phosphatase Inhibition Constants (Kic) PTP1B; competitive Ki, +/- S.D.; pNPP substrate
T7 sequence (P18031 1-321): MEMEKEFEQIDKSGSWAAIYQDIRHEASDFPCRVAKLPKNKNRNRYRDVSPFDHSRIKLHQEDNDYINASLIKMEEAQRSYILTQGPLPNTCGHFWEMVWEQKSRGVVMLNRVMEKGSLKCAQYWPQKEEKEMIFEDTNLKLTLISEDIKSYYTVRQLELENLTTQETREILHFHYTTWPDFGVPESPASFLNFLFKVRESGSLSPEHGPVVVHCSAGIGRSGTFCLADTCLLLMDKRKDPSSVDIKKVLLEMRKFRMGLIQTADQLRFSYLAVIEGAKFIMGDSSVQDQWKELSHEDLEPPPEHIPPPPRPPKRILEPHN
Protocol: Human protein tyrosine phosphatase 1B (PTP1B, amino acid residues 1-321) was expressed in E. coli BL21 (DE3). The cell paste was resuspended in 4 cell paste volumes of lysis buffer containing 100 mM MES (pH 6.5), 100 mM NaCl, 1 mM EDTA, 1 mM DTT, 1 mM PMSF, 20 U/mL Benzonase, 0.5 mg/mL lysozyme, and 1 mM MgCl2 and incubated for 35 minutes at room temperature. The cells were lysed at 11,000 psi using a Rannie homogenizer, and the homogenate was clarified in a Beckman GSA rotor at 10,000×g for 30 minutes at 4° C. […] After sample application, the column was washed with 10 column volume (CV) of the same buffer, PTP1B was eluted with a 20 CV linear gradient of 100 mM to 500 mM NaCl in the same buffer. The fractions (28 mL each) were assayed for purity by 10-20% Tris-Glycine SDS-PAGE. Fractions which contained >95% protein tyrosine phosphatase 1 B were combined. These fractions were concentrated to approximately 10 mg/mL by ultrafiltration and chromatographed on a 180 mL (1.6 cm×90 cm) Superdex 75 column in 10 mM TRIS-HCl, pH 7.5, 25 mM NaCl, 0.2 mM EDTA, 3 mM DTT. The fractions (2 mL each) were assayed for purity by 10-20% Tris-Glycine SDS-PAGE. Fractions which contained >99% protein tyrosine phosphatase 1 B were combined. Aliquots were frozen in liquid N2 and stored at −70° C. until used. Once thawed, PTP1B was stored on ice and used within 6 hours.

TCPTP [4] = biological target: T5, TCPTP; conditions: read-out: Phosphatase Inhibition Constants (Kic) TC-PTP; competitive Ki, +/- S.D.; pNPP substrate

T6 sequence (P63099 2-170 partner limits assumed, other chains not shown): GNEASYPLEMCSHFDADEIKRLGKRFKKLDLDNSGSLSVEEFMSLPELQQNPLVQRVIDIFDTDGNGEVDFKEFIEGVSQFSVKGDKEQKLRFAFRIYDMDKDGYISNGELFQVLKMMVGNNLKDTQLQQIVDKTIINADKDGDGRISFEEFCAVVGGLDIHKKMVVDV

Compound	Ki [1] [µM]	Ki (SHP-2 (full length)) [µM]	Ki (LAR) [µM]	Ki (CD45) [µM]	Ki (TCPTP [2]) [µM]	Ki (Bovine PP2B) [µM]	Ki [3] [µM]	Ki (TCPTP [4]) [µM]
COC(=O)c1c(O)cccc1OC/C=C/c1cccc(-c2cc(C(=O)O)no2)c1 [Example 1, 5-(3-((1E)-3-(3-hydroxy-2-(methoxycarbonyl)phenoxy)prop-1-enyl)phenyl)isoxazole-3-carboxylic Acid]	> 300	> 300	> 300	> 300	202	> 300	–	–
COC(=O)c1c(O)cccc1OC/C=C/c1ccc(F)c(-c2cc(C(=O)O)no2)c1 [Example 8, 5-(2-fluoro-5-((1E)-3-(3-hydroxy-2-(methoxycarbonyl)phenoxy)prop-1-enyl)phenyl)isoxazole-3-carboxylic Acid]	> 300	> 300	–	> 300	–	> 300	6.9	164
